Measurements: patent publication US20210171576A1, “METHODS FOR TREATING CANCER WITH ACYLDEPSIPEPTIDE ANALOGS” (priority 2018, published 2021)
Where a SMILES comes first, the peptide text is derived from it. Bridges are numbered along the chain shown (N, C = ends). [ ]: non-standard residue; d: D form. The star is where a group is joined. Octatrienoyl(2E,4E,6E) = C/C=C/C=C/C=C/C(=O)*; Phe(3,5-F2) = N[C@@H](Cc1cc(F)cc(F)c1)C(=O)O; Pip(4S-Me) = C[C@H]1CCN[C@H](C(=O)O)C1; Hexadienoyl(2E,4E) = C/C=C/C=C/C(=O)*; Pro(4R-Me) = C[C@H]1CN[C@H](C(=O)O)C1; Heptenoyl(2E) = CCCC/C=C/C(=O)*; Cha = N[C@@H](CC1CCCCC1)C(=O)O; aThr = C[C@H](O)[C@H](N)C(=O)O; Pip = O=C(O)[C@@H]1CCCCN1; X2 = O=C(/C=C/CC1CCCCC1)*; NMeA = CN[C@@H](C)C(=O)O; Abu = CC[C@H](N)C(=O)O; Cbz = O=C(OCc1ccccc1)*; Dap = NC[C@H](N)C(=O)O; X3 = O=C(/C=C/CC1CC1)*; X4 = CCCCC/C=C/C(=O)*; X6 = CCCC/C=C\C(=O)*; X5 = CCCCCC#CC(=O)*; X8 = CCC/C=C/C(=O)*; X10 = CCCC#CC(=O)*; X9 = CCCCC#CC(=O)*

Biological target: T1, human mitochondrial CIpP (HsCIpP) (Homo sapiens, UniProt Q16740)
T1 construct: made in house; host or cells: E. coli SG1146 (BL21(DE3) ΔclpP::cat)
Assay: Screen of ADEP analogs against HsCIpP: relative degradation (RD) index, casein-FITC degradation relative to E. coli CIpAP
Type: biochemical
Design: key: casein-FITC degradation by HsClpP relative to EcClpAP
Settings: for Hs RD1: RD value at 1 μM of the ADEP analog; for Hs RD5: RD value at 5 μM of the ADEP analog; for Hs RD25: RD value at 25 μM of the ADEP analog, measure of ability to activate HsCIpP
From the text: Structural analogs of acyldepsipeptide (ADEP) (Goodreid et al., 2016) that were previously developed as potential antibiotics against bacterial CIpP were screened and assessed for their ability to activate and dysregulate the protease activity of HsCIpP, by measuring their relative degradation (RD) index. Note that ADEP-28 was also previously reported by Carney et al. (2014). Details of the experimental protocol have been described in Leung et al., 2011. The RD index is defined as follows: […]
Δφ is the change in fluorescence after 6 hr of starting the reaction measured using 485 nm excitation and 535 nm emission, which primarily detects the signal from casein-FITC. E. coli CIpAP was used as a benchmark for maximum CIpP proteolytic activity. The CIpP in the numerator can be from any other organism. RD25 measurements refer to the measurement in the presence of 25 μM compound. All ADEP analogs were first screened at 25 μM, and their RD25 scores were calculated using the above formula and method as described in Leung et al., 2011 (FIG. 1A). Those that achieved RD25≥0.87 were screened a second time at 5 μM, followed by calculation of their RD5 scores. The top analogs with RD5≥0.74 were screened a third time at 1 μM, followed by calculation of their RD1 scores (FIG. 1B).
To identify ADEP analogs that allow HsCIpP to degrade folded proteins independent of HsCIpX+ATP (i.e., that activate or dysregulate HsCIpP), the inventors employed the in vitro screening method that was used for identifying small molecule activators of Escherichia coli CIpP (EcCIpP) (Leung et al., 2011). In this approach, the ability of HsCIpP to degrade FITC-labeled casein (casein-FITC) was measured and compared to the ability of EcCIpAP to degrade casein-FITC. This is quantitatively expressed as relative degradation (RD) index (Leung et al., 2011).

T1 sequence (Q16740 57-277): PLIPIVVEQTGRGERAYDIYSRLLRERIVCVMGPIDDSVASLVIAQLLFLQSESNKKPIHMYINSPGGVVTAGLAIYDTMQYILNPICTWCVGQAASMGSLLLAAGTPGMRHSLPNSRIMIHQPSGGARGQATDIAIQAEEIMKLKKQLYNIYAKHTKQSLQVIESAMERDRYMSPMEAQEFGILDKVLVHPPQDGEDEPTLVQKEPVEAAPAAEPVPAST

Row | Hs RD1 | Hs RD5 | Hs RD25 | Compound
1 | 0.22 | 0.70 | 0.96 | CCCC/C=C/C(=O)N[C@@H](Cc1ccccc1)C(=O)N[C@H]1COC(=O)[C@@H]2CCCN2C(=O)[C@H](C)NC(=O)[C@H](C)N(C)C(=O)[C@@H]2CCCN2C1=O [ADEP-01] ({Heptenoyl(2E)}-FSP[NMeA]AP; ester 2-C)
2 | 0.52 | 0.88 | 1.08 | CCCC/C=C/C(=O)N[C@H](Cc1ccccc1)C(=O)N[C@H]1COC(=O)[C@@H]2CCCN2C(=O)[C@H](C)NC(=O)[C@@H]2CCCCN2C(=O)[C@@H]2CCCN2C1=O [ADEP-02]
3 |  |  | 0.76 | CCC/C=C/C(=O)N[C@@H](Cc1ccccc1)C(=O)N[C@H]1COC(=O)[C@@H]2CCCN2C(=O)[C@H](C)NC(=O)[C@H](C)N(C)C(=O)[C@@H]2CCCN2C1=O [ADEP-09] (X8-FSP[NMeA]AP; ester 2-C)
4 | 0.44 | 0.85 | 1.07 | CCCC/C=C/C(=O)N[C@@H](Cc1ccccc1)C(=O)N[C@H]1COC(=O)[C@@H]2C[C@@H](C)CN2C(=O)[C@H](C)NC(=O)[C@@H]2CCCCN2C(=O)[C@@H]2CCCN2C1=O [ADEP-10]
5 | 0.58 | 0.92 | 1.05 | CCCC/C=C/C(=O)N[C@@H](Cc1cc(F)cc(F)c1)C(=O)N[C@H]1COC(=O)[C@@H]2C[C@@H](C)CN2C(=O)[C@H](C)NC(=O)[C@@H]2CCCN2C(=O)[C@@H]2CCCN2C1=O [ADEP-15]
6 |  | 0.72 | 1.07 | CCCCC/C=C/C(=O)N[C@@H](Cc1ccccc1)C(=O)N[C@H]1COC(=O)[C@@H]2CCCN2C(=O)[C@H](C)NC(=O)[C@H](C)N(C)C(=O)[C@@H]2CCCN2C1=O [ADEP-18] (X4-FSP[NMeA]AP; ester 2-C)
7 |  |  | 0.34 | CCCC/C=C\C(=O)N[C@@H](Cc1ccccc1)C(=O)N[C@H]1COC(=O)[C@@H]2CCCN2C(=O)[C@H](C)NC(=O)[C@H](C)N(C)C(=O)[C@@H]2CCCN2C1=O [ADEP-19] (X6-FSP[NMeA]AP; ester 2-C)
8 | 0.53 | 0.90 | 1.04 | CCC/C=C/C(=O)N[C@@H](Cc1cccc(F)c1)C(=O)N[C@H]1COC(=O)[C@@H]2C[C@@H](C)CN2C(=O)[C@H](C)NC(=O)[C@@H]2CCCCN2C(=O)[C@@H]2CCCN2C1=O [ADEP-20]
9 |  | 0.70 | 1.00 | CCCC/C=C/C(=O)N[C@@H](CC1CCCCC1)C(=O)N[C@H]1COC(=O)[C@@H]2C[C@@H](C)CN2C(=O)[C@H](C)NC(=O)[C@@H]2CCCCN2C(=O)[C@@H]2CCCN2C1=O [ADEP-21] ({Heptenoyl(2E)}-[Cha]SP[Pip]A[Pro(4R-Me)]; ester 2-C)
10 | 0.61 | 0.92 | 0.97 | CCCC/C=C/C(=O)N[C@@H](Cc1cc(F)cc(F)c1)C(=O)N[C@H]1COC(=O)[C@@H]2C[C@@H](C)CN2C(=O)[C@H](CC)NC(=O)[C@@H]2CCCCN2C(=O)[C@@H]2CCCN2C1=O [ADEP-25] ({Heptenoyl(2E)}-[Phe(3,5-F2)]SP[Pip][Abu][Pro(4R-Me)]; ester 2-C)
11 | 0.69 | 0.93 | 0.98 | CCCC/C=C/C(=O)N[C@@H](Cc1cc(F)cc(F)c1)C(=O)N[C@H]1COC(=O)[C@@H]2C[C@@H](C)CN2C(=O)[C@H](C)NC(=O)[C@@H]2C[C@@H](C)CCN2C(=O)[C@@H]2CCCN2C1=O [ADEP-30] ({Heptenoyl(2E)}-[Phe(3,5-F2)]SP[Pip(4S-Me)]A[Pro(4R-Me)]; ester 2-C)
12 | 0.79 | 0.96 | 1.03 | CCCC/C=C/C(=O)N[C@@H](Cc1cc(F)cc(F)c1)C(=O)N[C@H]1CNC(=O)[C@@H]2C[C@@H](C)CN2C(=O)[C@H](C)NC(=O)[C@@H]2CCCCN2C(=O)[C@@H]2CCCN2C1=O [ADEP-32] ({Heptenoyl(2E)}-[Phe(3,5-F2)][Dap]P[Pip]A[Pro(4R-Me)]; lactam 2-C)

The next lines start with the compound.

Row | Compound | Hs RD1 | Hs RD5 | Hs RD25
13 | C/C=C/C=C/C(=O)N[C@@H](Cc1ccccc1)C(=O)N[C@H]1COC(=O)[C@@H]2C[C@@H](C)CN2C(=O)[C@H](C)NC(=O)[C@H](C)N(C)C(=O)[C@@H]2CCCN2C1=O [ADEP-03] ({Hexadienoyl(2E,4E)}-FSP[NMeA]A[Pro(4R-Me)]; ester 2-C) |  |  | 0.66
14 | C/C=C/C=C/C=C/C(=O)N[C@@H](Cc1ccccc1)C(=O)N[C@H]1COC(=O)[C@@H]2C[C@@H](C)CN2C(=O)[C@H](C)NC(=O)[C@H](C)N(C)C(=O)[C@@H]2CCCN2C1=O [ADEP-05] ({Octatrienoyl(2E,4E,6E)}-FSP[NMeA]A[Pro(4R-Me)]; ester 2-C) |  | 0.69 | 0.98
15 | CCCC/C=C/C(=O)N[C@@H](Cc1cc(F)cc(F)c1)C(=O)N[C@H]1COC(=O)[C@@H]2C[C@@H](C)CN2C(=O)[C@H](C)NC(=O)[C@H](C)N(C)C(=O)[C@@H]2CCCN2C1=O [ADEP-06] ({Heptenoyl(2E)}-[Phe(3,5-F2)]SP[NMeA]A[Pro(4R-Me)]; ester 2-C) | 0.64 | 0.94 | 1.05
16 | C/C=C/C=C/C=C/C(=O)N[C@@H](Cc1ccccc1)C(=O)N[C@H]1COC(=O)[C@@H]2CCCN2C(=O)[C@H](C)NC(=O)[C@H](C)N(C)C(=O)[C@@H]2CCCN2C1=O [ADEP-08] ({Octatrienoyl(2E,4E,6E)}-FSP[NMeA]AP; ester 2-C) |  | 0.52 | 0.97
17 | CCCCC#CC(=O)N[C@@H](Cc1ccccc1)C(=O)N[C@H]1COC(=O)[C@@H]2CCCN2C(=O)[C@H](C)NC(=O)[C@H](C)N(C)C(=O)[C@@H]2CCCN2C1=O [ADEP-12] (X9-FSP[NMeA]AP; ester 2-C) |  |  | 0.36
18 | C[C@@H]1C[C@H]2C(=O)O[C@@H](C)[C@H](NC(=O)[C@H](Cc3cc(F)cc(F)c3)NC(=O)/C=C/CC3CC3)C(=O)N3CCC[C@H]3C(=O)N3CCCC[C@H]3C(=O)N[C@@H](C)C(=O)N2C1 [ADEP-13] (X3-[Phe(3,5-F2)][aThr]P[Pip]A[Pro(4R-Me)]; ester 2-C) | 0.59 | 0.91 | 1.02
19 | C[C@@H]1C[C@H]2C(=O)OC[C@H](NC(=O)[C@H](Cc3ccccc3)NC(=O)OCc3ccccc3)C(=O)N3CCC[C@H]3C(=O)N(C)[C@@H](C)C(=O)N[C@@H](C)C(=O)N2C1 [ADEP-16] (Cbz-FSP[NMeA]A[Pro(4R-Me)]; ester 2-C) |  |  | 0.06
20 | C[C@@H]1C[C@H]2C(=O)O[C@@H](C)[C@H](NC(=O)[C@H](Cc3cc(F)cc(F)c3)NC(=O)/C=C/CC3CCCCC3)C(=O)N3CCC[C@H]3C(=O)N3CCCC[C@H]3C(=O)N[C@@H](C)C(=O)N2C1 [ADEP-17] (X2-[Phe(3,5-F2)][aThr]P[Pip]A[Pro(4R-Me)]; ester 2-C) | 0.86 | 0.91 | 1.02
21 | C[C@@H]1NC(=O)[C@H](C)N(C)C(=O)[C@@H]2CCCN2C(=O)[C@@H](NC(=O)[C@H](Cc2ccccc2)NC(=O)OCc2ccccc2)COC(=O)[C@@H]2CCCN2C1=O [ADEP-22] (Cbz-FSP[NMeA]AP; ester 2-C) |  |  | 0.00
22 | CCCC#CC(=O)N[C@@H](Cc1ccccc1)C(=O)N[C@H]1COC(=O)[C@@H]2CCCN2C(=O)[C@H](C)NC(=O)[C@H](C)N(C)C(=O)[C@@H]2CCCN2C1=O [ADEP-23] (X10-FSP[NMeA]AP; ester 2-C) |  |  | 0.12
23 | C[C@@H]1NC(=O)[C@@H]2CCCCN2C(=O)[C@@H]2CCCN2C(=O)[C@@H](NC(=O)[C@H](Cc2ccccc2)NC(=O)c2ccc([N+](=O)[O-])cc2)COC(=O)[C@@H]2CCCN2C1=O [ADEP-24] |  |  | 0.00
24 | C/C=C/C=C/C(=O)N[C@@H](Cc1ccccc1)C(=O)N[C@H]1COC(=O)[C@@H]2CCCN2C(=O)[C@H](C)NC(=O)[C@H](C)N(C)C(=O)[C@@H]2CCCN2C1=O [ADEP-26] ({Hexadienoyl(2E,4E)}-FSP[NMeA]AP; ester 2-C) |  |  | 0.86
25 | CCCCCC#CC(=O)N[C@@H](Cc1ccccc1)C(=O)N[C@H]1COC(=O)[C@@H]2CCCN2C(=O)[C@H](C)NC(=O)[C@H](C)N(C)C(=O)[C@@H]2CCCN2C1=O [ADEP-27] (X5-FSP[NMeA]AP; ester 2-C) |  |  | 0.64
26 | CCCC/C=C/C(=O)N[C@@H](Cc1cc(F)cc(F)c1)C(=O)N[C@@H]1C(=O)N2CCC[C@H]2C(=O)N2CCCC[C@H]2C(=O)N[C@@H](C)C(=O)N2C[C@H](C)C[C@H]2C(=O)O[C@H]1C [ADEP-29] ({Heptenoyl(2E)}-[Phe(3,5-F2)][aThr]P[Pip]A[Pro(4R-Me)]; ester 2-C) | 0.76 | 0.87 | 0.92
27 | C[C@@H]1C[C@H]2C(=O)OC[C@H](NC(=O)[C@@H](N)Cc3ccccc3)C(=O)N3CCC[C@H]3C(=O)N(C)[C@@H](C)C(=O)N[C@@H](C)C(=O)N2C1 [ADEP-31] (H-FSP[NMeA]A[Pro(4R-Me)]; ester 2-C) |  |  | 0.00
